Test results from ChEMBL document CHEMBL3885861, “Open TG-GATES”.

Organism: Rattus norvegicus
Assay: Open TG-GATES - Regimen: Single
Type: toxicity, organism-based, Sprague-Dawley
Design: regimen Single, gender Male, age 6 weeks
Details: in vivo, iv, route intravenous injection; for Bas / Eos / Fbg / Ht / Lym / MCH / MCHC / MCV / Mono / PT / Plat / RBC / Ret / Neu / Hb: tissue Blood; for KIDNEY_L / KIDNEY_R / KIDNEY_TOTAL: tissue Kidney; for LIVER: tissue Liver; for ALP / ALT / AST / CRE / DBIL / GLC / K / LDH / Na / RALB / TBIL / TC / TG / TP / gamma-GTP: tissue Plasma
[1] = 0 mg/kg, 3 h, dose level Control
[2] = 0 mg/kg, 6 h, dose level Control
[3] = 0 mg/kg, 9 h, dose level Control
[4] = 0 mg/kg, 24 h, dose level Control
[5] = 3 mg/kg, 3 h, dose level Middle

## COc1cccc2c1C(=O)c1c(O)c3c(c(O)c1C2=O)C[C@@](O)(C(=O)CO)C[C@@H]3O[C@H]1C[C@H](N)[C@H](O)[C@H](C)O1 [DOXORUBICIN]
[1]
  TERMINAL_BW: 210.4 g
  Bas: 0%
  Eos: 0.8%
  Fbg: 277.8 mg/dL
  Ht: 39.4%
  Lym: 84.4%
  MCH: 22 pg
  MCHC: 34.9%
  MCV: 63.1 fL
  Mono: 2.6%
  PT: 16.3 s
  Plat: 122.6 x10_4/uL
  RBC: 625 x10_4/ul
  Ret: 6.3%
  KIDNEY_L: 0.9 g
  KIDNEY_R: 0.9 g
  KIDNEY_TOTAL: 1.8 g
  LIVER: 9.4 g
  ALP: 1425.2 IU/L
  ALT: 43.6 IU/L
  AST: 77 IU/L
  CRE: 0.2 mg/dL
  DBIL: 0 mg/dL
  GLC: 181.8 mg/dL
  K: 4.5 meq/L
  LDH: 185.6 IU/L
  Na: 142.2 meq/L
  RALB: 3 g/dL
  TBIL: 0.008 mg/dL
  TC: 77.6 mg/dL
  TG: 87.2 mg/dL
  TP: 5.2 g/dL
  gamma-GTP: 1.2 IU/L
[2]
  TERMINAL_BW: 211.5 g
  Bas: 0%
  Eos: 0.8%
  Fbg: 292.4 mg/dL
  Ht: 38.3%
  Lym: 76%
  MCH: 21.5 pg
  MCHC: 34.4%
  MCV: 62.4 fL
  Mono: 2.8%
  Neu: 19.2%
  PT: 16.3 s
  Plat: 127.3 x10_4/uL
  RBC: 614.6 x10_4/ul
  Ret: 6.9%
  KIDNEY_L: 0.9 g
  KIDNEY_R: 0.9 g
  KIDNEY_TOTAL: 1.8 g
  LIVER: 8.9 g
  ALP: 1252 IU/L
  ALT: 46.6 IU/L
  AST: 90.2 IU/L
  CRE: 0.2 mg/dL
  DBIL: 0.004 mg/dL
  GLC: 172.2 mg/dL
  K: 4.3 meq/L
  Na: 140.6 meq/L
  RALB: 2.9 g/dL
  TBIL: 0.026 mg/dL
  TC: 71.8 mg/dL
  TG: 63 mg/dL
  TP: 5.1 g/dL
  gamma-GTP: 1.6 IU/L
[3]
  TERMINAL_BW: 208 g
  Bas: 0%
  Eos: 0.6%
  Fbg: 298.2 mg/dL
  Ht: 38.9%
  Lym: 77.8%
  MCH: 21.6 pg
  MCHC: 34.2%
  MCV: 63.2 fL
  Mono: 2.8%
  PT: 16.4 s
  Plat: 116.3 x10_4/uL
  RBC: 615.4 x10_4/ul
  Ret: 6.5%
  KIDNEY_L: 0.9 g
  KIDNEY_R: 1 g
  KIDNEY_TOTAL: 1.9 g
  LIVER: 8.6 g
  ALP: 1422.6 IU/L
  ALT: 39.8 IU/L
  AST: 77.6 IU/L
  CRE: 0.2 mg/dL
  DBIL: 0 mg/dL
  GLC: 201.8 mg/dL
  K: 4.3 meq/L
  Na: 140.2 meq/L
  RALB: 2.9 g/dL
  TBIL: 0.01 mg/dL
  TC: 63 mg/dL
  TG: 65.6 mg/dL
  TP: 5.3 g/dL
  gamma-GTP: 1.4 IU/L
[4]
  TERMINAL_BW: 223.8 g
  Bas: 0%
  Eos: 1%
  Fbg: 298 mg/dL
  Ht: 37.5%
  Lym: 77.6%
  MCH: 22.4 pg
  MCHC: 36%
  MCV: 62.2 fL
  Mono: 4%
  Neu: 16.4%
  PT: 16.4 s
  Plat: 117.3 x10_4/uL
  RBC: 602.6 x10_4/ul
  Ret: 7%
  KIDNEY_L: 0.9 g
  KIDNEY_R: 1 g
  KIDNEY_TOTAL: 1.9 g
  ALP: 1402 IU/L
  ALT: 41 IU/L
  AST: 68 IU/L
  CRE: 0.2 mg/dL
  DBIL: 0.002 mg/dL
  GLC: 191.2 mg/dL
  K: 4.5 meq/L
  Na: 141.6 meq/L
  RALB: 3.1 g/dL
  TBIL: 0.014 mg/dL
  TC: 77.6 mg/dL
  TG: 113 mg/dL
  TP: 5.5 g/dL
  gamma-GTP: 1.4 IU/L
1 mg/kg, 3 h, dose level Low
  TERMINAL_BW: 214.5 g
  Bas: 0%
  Eos: 1%
  Fbg: 272 mg/dL
  Hb: 13.4 g/dL
  Ht: 38.5%
  Lym: 77%
  MCH: 21.8 pg
  MCHC: 34.8%
  MCV: 62.7 fL
  Mono: 3%
  PT: 16.4 s
  Plat: 126.6 x10_4/uL
  RBC: 614.2 x10_4/ul
  Ret: 6.6%
  KIDNEY_L: 0.9 g
  KIDNEY_R: 0.9 g
  KIDNEY_TOTAL: 1.9 g
  LIVER: 9.4 g
  ALP: 1599.2 IU/L
  ALT: 44 IU/L
  AST: 86.6 IU/L
  CRE: 0.2 mg/dL
  DBIL: 0.002 mg/dL
  GLC: 185.4 mg/dL
  K: 4.2 meq/L
  Na: 142.4 meq/L
  RALB: 2.9 g/dL
  TBIL: 0.018 mg/dL
  TC: 67.8 mg/dL
  TG: 81 mg/dL
  TP: 5.1 g/dL
  gamma-GTP: 1.6 IU/L
1 mg/kg, 6 h, dose level Low
  TERMINAL_BW: 211.5 g
  Bas: 0%
  Eos: 0.4%
  Fbg: 292.8 mg/dL
  Hb: 13 g/dL
  Ht: 38.2%
  Lym: 79.4%
  MCH: 21.9 pg
  MCHC: 34.2%
  MCV: 64 fL
  Mono: 3.4%
  PT: 15.9 s
  Plat: 117.6 x10_4/uL
  RBC: 598.8 x10_4/ul
  Ret: 7%
  KIDNEY_L: 1 g
  KIDNEY_R: 1 g
  KIDNEY_TOTAL: 1.9 g
  LIVER: 8.9 g
  ALP: 1586.4 IU/L
  ALT: 43.4 IU/L
  AST: 78.8 IU/L
  CRE: 0.1 mg/dL
  DBIL: 0 mg/dL
  GLC: 172 mg/dL
  K: 4.2 meq/L
  Na: 140.6 meq/L
  RALB: 2.9 g/dL
  TBIL: 0.022 mg/dL
  TC: 71.8 mg/dL
  TG: 62.6 mg/dL
  TP: 5.2 g/dL
  gamma-GTP: 1.6 IU/L
1 mg/kg, 9 h, dose level Low
  TERMINAL_BW: 206.4 g
  Bas: 0%
  Eos: 1%
  Fbg: 286.2 mg/dL
  Ht: 38.8%
  Lym: 74.8%
  MCH: 21.3 pg
  MCHC: 34.3%
  MCV: 62.3 fL
  Mono: 3%
  Neu: 20.4%
  PT: 16.4 s
  Plat: 115.3 x10_4/uL
  RBC: 624 x10_4/ul
  Ret: 6.7%
  KIDNEY_L: 0.9 g
  KIDNEY_R: 0.9 g
  KIDNEY_TOTAL: 1.8 g
  LIVER: 8.1 g
  ALP: 1211 IU/L
  AST: 73.4 IU/L
  CRE: 0.1 mg/dL
  DBIL: 0 mg/dL
  GLC: 180 mg/dL
  K: 4.2 meq/L
  LDH: 136.6 IU/L
  Na: 140.2 meq/L
  RALB: 3 g/dL
  TBIL: 0.02 mg/dL
  TC: 67.8 mg/dL
  TG: 52.6 mg/dL
  TP: 5.3 g/dL
  gamma-GTP: 1.2 IU/L
1 mg/kg, 24 h, dose level Low
  TERMINAL_BW: 218.4 g
  Bas: 0%
  Eos: 0.8%
  Fbg: 307.6 mg/dL
  Ht: 37.2%
  Lym: 83.2%
  MCH: 21.6 pg
  MCHC: 35.8%
  MCV: 60.4 fL
  Mono: 3.4%
  PT: 16.7 s
  Plat: 116 x10_4/uL
  RBC: 617.4 x10_4/ul
  Ret: 6.2%
  KIDNEY_L: 0.9 g
  KIDNEY_R: 1 g
  KIDNEY_TOTAL: 1.9 g
  ALP: 1436.4 IU/L
  AST: 68.2 IU/L
  CRE: 0.2 mg/dL
  DBIL: 0.002 mg/dL
  GLC: 191.8 mg/dL
  K: 4.3 meq/L
  Na: 142.4 meq/L
  RALB: 3 g/dL
  TBIL: 0.024 mg/dL
  TC: 75.2 mg/dL
  TG: 102.4 mg/dL
  TP: 5.6 g/dL
  gamma-GTP: 1.4 IU/L
[5]
  TERMINAL_BW: 212.4 g
  Bas: 0%
